pIC50: −log10 of the molar value. Where a name gives a salt, the structure may show the parent alone. Read-outs that look alike come from different tables or passages of the source. Where only a bound is given, the exact number is not on record here.

For data set [1] the following is noted: cited from earlier work.
Data set [2] can be described thus: hPDE3 assay ([3H]cAMP scintillation proximity assay). Conditions: Table 3-C; title says PDE3, head says c-Met Biochem IC50 [nM]. Type of data set: biochemical, human.
The test system of the next data set is GTL16 cells. Description: GTL16 cell viability assay (CellTiter Glo). Conditions: read-out: GTL-16 Proliferation IC50.
In data set [3] the target is c-Met receptor tyrosine kinase, GST-c-MET (969-1390) (Homo sapiens (Human), UniProt P08581). Conditions: read-out: c-Met Biochem IC50.
Chain of c-Met receptor tyrosine kinase, GST-c-MET (969-1390) (P08581 969-1390): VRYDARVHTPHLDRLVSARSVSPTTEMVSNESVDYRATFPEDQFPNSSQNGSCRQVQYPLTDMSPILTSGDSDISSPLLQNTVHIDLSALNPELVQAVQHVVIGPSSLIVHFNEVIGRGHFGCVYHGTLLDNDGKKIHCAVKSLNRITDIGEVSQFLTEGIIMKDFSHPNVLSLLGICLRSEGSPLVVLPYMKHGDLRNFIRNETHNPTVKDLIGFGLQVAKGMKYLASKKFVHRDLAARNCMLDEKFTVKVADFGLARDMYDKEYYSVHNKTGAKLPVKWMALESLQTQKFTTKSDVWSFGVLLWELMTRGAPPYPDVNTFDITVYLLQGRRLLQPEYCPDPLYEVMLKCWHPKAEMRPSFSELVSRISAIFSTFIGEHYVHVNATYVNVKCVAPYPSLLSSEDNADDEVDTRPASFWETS
Procedure: A number of compounds of the present invention were assayed in an antibody based kinase phosphorylation assay as follows.
The EPK kinase assay for c-Met receptor tyrosine kinase was developed, using the purified recombinant GST-fusion protein, containing the cytoplasmic domain of the enzyme.
The kinase assay is based on the LanthaScreen™ technology.
The kinase reactions were performed in 384 well microtiter plates in a total reaction volume of 10.05 μL. The assay plates were prepared with 0.05 μL per well of test compound in the appropriate test concentration, as described under “preparation of compound dilutions”. The reactions were started by combining 5 μL of ATP solution with 5 μL of enzyme-substrate mix (consisting of kinase and substrate). […] Subsequently 5 μL of detection mix (50 mM Tris/HCl, 2 mM DTT, 0.05% Tween20, 20 μM sodium orthovanadate, 1% BSA, 1 nM Tb-PY20 antibody) were added to the stopped reactions. After 45 minutes incubation in dark at room temperature, the plates were measured in a Perkinelmer Envision fluorescence reader.
For data set [4] the following is noted: patients treated with SGX523; cited from earlier work.
For data set [5] the following is noted: monkey liver S-9; cited from earlier work.
For data set [6] the following is noted: human liver S-9; cited from earlier work.
The conditions of data set [7]: dog S-9 incubations; cited from earlier work.
A further data set concerns the target human platelet PDE3 (Homo sapiens (Human), UniProt Q14432). Description: hPDE3 assay ([3H]cAMP scintillation proximity assay). Type of data set: biochemical. Conditions: human platelet PDE3. From the text: Here, compounds of formula I were screened for their ability to inhibit human PDE3 in the assay based on Amersham Pharmacia Biotech's Phosphodiesterase (PDE) [^3H]-adenosine 3′,5′ cyclic phosphate ([^3H]cAMP) Scintillation Proximity Assay (SPA). The assay is based on the hydrolysis of [^3H]cAMP, by human platelet PDE3, to [^3H]5′-adenoside monophosphate (5′-AMP). The [^3H]5′-AMP is specifically captured by yttrium silicate SPA beads in the presence of zinc sulphate.
• Optiplate and TopSeal-S (Can berra Packard) • Human platelet PDE3 (partially purified from human platelets)—a titration curve of human platelet PDE3 activity was performed to optimise the concentration of hPDE3 required in the assay. • Yttrium silicate SPA beads and [^3H]cAMP (Amersham) • Tris-Base, magnesium chloride, ethylenediaminetetraacetic acid (di-sodium salt), bovine serum albumin BSA and cAMP (Sigma) Solutions and Buffers: • Assay buffer: 7.56 g Tris-Base was dissolved in approximately 800 mL distilled water and the pH adjusted to 7.5 with 1 M hydrochloric acid. 10.3 mL 1 M magnesium chloride and 4.25 mL 0.5 M EDTA were added. The solution was made to 1 L with distilled water and stored at 4° C. On day of use 18 mL of the above solution was removed and 2 mL 5 mg/ml BSA were added thereto. • Enzyme buffer: 10 mM Tris-HCl at pH 7.5, 1 mM EDTA • Yttrium silicate SPA beads: 1 vial was reconstituted in 28 mL distilled water and stored at 4° C. Assay
The assay was performed in a final volume of 100 μL per well of an Optiplate (Canberra Packard). A 10 μL aliquot of the test compound dissolved in DMSO/distilled water was placed in a well of an Optiplate plate, followed by the addition of 80 μL ‘Assay mix’ (5.5 μL [^3H]cAMP and 88 μL “cold” cAMP were diluted to 8.8 mL using assay buffer). The reaction was started by adding 10 μL hPDE3 (50 μL stock hPDE3 solution was diluted 50 fold to 2.5 mL using enzyme buffer). The plate was incubated at room temperature for 30 min, the reaction was then terminated by the addition of 50 μL Yttrium silicate SPA beads (pre-warmed to room temperature) to all wells. […] The plate was sealed using TopSeal-S according to the manufacturer's instructions and counted using a Packard TopCount, each well being counted for 1 min. IC50 values were determined using non-linear regression.
A general note: In a scintillation proximity assay essentially only radioactivity close to the scintillant gives light.

[8] abbreviates: 2 μM ATP, 60 minutes at room temperature.

Chain of human platelet PDE3 (Q14432 whole entry): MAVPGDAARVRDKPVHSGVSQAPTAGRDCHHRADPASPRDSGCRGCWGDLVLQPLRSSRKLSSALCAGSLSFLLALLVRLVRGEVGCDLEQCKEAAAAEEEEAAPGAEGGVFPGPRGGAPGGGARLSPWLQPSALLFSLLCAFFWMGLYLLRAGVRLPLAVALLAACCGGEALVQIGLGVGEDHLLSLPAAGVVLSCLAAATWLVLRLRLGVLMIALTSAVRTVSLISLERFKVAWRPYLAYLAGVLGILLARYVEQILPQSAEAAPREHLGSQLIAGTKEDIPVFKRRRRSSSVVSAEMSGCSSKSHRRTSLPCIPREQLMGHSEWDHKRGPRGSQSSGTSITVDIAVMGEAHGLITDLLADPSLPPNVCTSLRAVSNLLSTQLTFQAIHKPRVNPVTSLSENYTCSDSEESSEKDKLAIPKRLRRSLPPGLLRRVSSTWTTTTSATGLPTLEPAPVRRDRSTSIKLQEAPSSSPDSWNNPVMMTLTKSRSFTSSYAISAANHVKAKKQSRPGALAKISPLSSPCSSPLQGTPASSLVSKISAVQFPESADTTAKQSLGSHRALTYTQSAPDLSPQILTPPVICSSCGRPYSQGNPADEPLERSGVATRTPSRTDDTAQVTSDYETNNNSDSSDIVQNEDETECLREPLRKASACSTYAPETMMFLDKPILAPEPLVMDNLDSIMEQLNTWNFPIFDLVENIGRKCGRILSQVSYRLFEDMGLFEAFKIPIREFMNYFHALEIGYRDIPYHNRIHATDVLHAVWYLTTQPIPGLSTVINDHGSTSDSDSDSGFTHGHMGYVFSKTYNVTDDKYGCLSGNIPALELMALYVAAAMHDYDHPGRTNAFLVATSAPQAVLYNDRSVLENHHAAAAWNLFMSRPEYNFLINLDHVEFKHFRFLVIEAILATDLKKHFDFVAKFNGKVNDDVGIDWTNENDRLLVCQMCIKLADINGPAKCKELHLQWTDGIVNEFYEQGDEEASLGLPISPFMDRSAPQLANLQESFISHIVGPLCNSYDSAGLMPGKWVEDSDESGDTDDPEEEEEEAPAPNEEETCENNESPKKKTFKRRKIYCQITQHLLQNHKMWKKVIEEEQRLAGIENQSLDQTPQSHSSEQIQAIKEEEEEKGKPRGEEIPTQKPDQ
Procedure for GTL16 cells: GTL16 Cell Viability Assay:
GTL16 expresses high level of c-Met receptor tyrosine kinase due to the gene amplification.
GTL16 cells were seeded in DMEM medium with 10% FBS and 1% Pene. & Strep. at 5000 cells/well/90 μL in 96 well plate and incubated overnight for attachment at 37° C. in 5% CO2 incubator. 10-fold serials dilutions of compounds were added to the cell as 10 μL/well. The final assay volume was 100 μl/well. The assay plates were incubated at 37° C. in 5% CO2 incubator for 24 hours. […] The chemiluminescent light unit was read in Envision from Perkin Elmer. All the tests were run at triplicates. The IC50 was calculated using Spotfire software.

`Cn1cc(-c2ccc3nnc(Sc4ccc5[nH]c(=O)ccc5c4)n3n2)cn1` [2-quinolinone-SGX523 metabolite, 6-(6-(1-methyl-1H-pyrazol-4-yl)-[1,2,4]triazolo[4,3-b]pyridazin-3-ylthio)quinolin-2(1H)-one]: the “solubility compared with SGX523” value in data set [1] is “markedly less-soluble”.
Regarding `Cn1cc(-c2ccc3nnc(C(F)(F)c4ccc5ncccc5c4)n3n2)cn1` [Comparator No. 1 (JNJ-38877605), 6-{Difluoro-[6-(1-methyl-1H-pyrazol-4-yl)-[1,2,4]triazolo[4,3-b]pyridazin-3-yl]-methyl}-quinoline, reference compound], the IC50 in data set [2] worked out at 4 nM. Moreover, the pIC50 with GTL16 cells (GTL16 cells, 24 hours) is > 8.00; in [3] (setting [8]), 8.52.
Take `C/C(=N\OCCO)c1ccc2nnc(Cc3ccc4ncc(N5CCN(C)CC5)cc4c3)n2n1` [Comparator No. 2, 1-{3-[3-(4-Methyl-piperazin-1-yl)-quinolin-6-ylmethyl]-[1,2,4]triazolo[4,3-b]pyridazin-6-yl}-ethanone O-(2-hydroxy-ethyl)-oxime]: in data set [2], the IC50 turned out to be 4 nM.
As for `Cn1cc(-c2ccc3nnc(Sc4ccc5ncccc5c4)n3n2)cn1` [Comparator No. 4 (SGX523), 6-[6-(1-Methyl-1H-pyrazol-4-yl)-[1,2,4]triazolo[4,3-b]pyridazin-3-ylsulfanyl]-quinoline], the “renal function of patients” value in data set [4] is “compromised renal function”. The “generation of metabolite M11” value is reported as “generated” in data set [5], “generated” in data set [6] and “absent” in [7].
Turning to `Cn1cc(-c2ccc3nnc(Sc4ccc5ncc(N6CCN(C7CCCCC7)CC6)cc5c4)n3c2)cn1` [Example 32, 3-(4-Cyclohexylpiperazin-1-yl)-6-(6-(1-methyl-1H-pyrazol-4-yl)-[1,2,4]triazolo[4,3-a]pyridin-3-ylthio)quinoline], the pIC50 was 4.59 against human platelet PDE3; 8.40 in the data set on GTL16 cells (GTL16 cells, 24 hours); […] in [3] (setting [8]).
Regarding `Cn1cc(-c2ccc3nnc(Sc4ccc5ncc(N6CCN(c7ccccc7)CC6)cc5c4)n3c2)cn1` [Example 34, 6-(6-(1-Methyl-1H-pyrazol-4-yl)-[1,2,4]triazolo[4,3-a]pyridin-3-ylthio)-3-(4-phenylpiperazin-1-yl)quinoline], the pIC50 against human platelet PDE3 was 4.52; in the data set with GTL16 cells (GTL16 cells, 24 hours), 9.00; in data set [3] (setting [8]), 7.35.
On the same counts, the results for `C[C@H]1CN(c2cnc3ccc(Sc4nnc5ccc(-c6cnn(C)c6)cn45)cc3c2)CCO1` [Example 35A, (S)-2-Methyl-4-(6-(6-(1-methyl-1H-pyrazol-4-yl)-[1,2,4]triazolo[4,3-a]pyridin-3-ylthio)quinolin-3-yl)morpholine] are 4.80, 9.00 and 8.30.
For the compound `C[C@@H]1CN(c2cnc3ccc(Sc4nnc5ccc(-c6cnn(C)c6)cn45)cc3c2)C[C@H](C)N1` [Example 42, 3-((3S,5R)-3,5-Dimethylpiperazin-1-yl)-6-(6-(1-methyl-1H-pyrazol-4-yl)-[1,2,4]triazolo[4,3-a]pyridin-3-ylthio)quinoline], the pIC50 against human platelet PDE3 is 4.54; with GTL16 cells (GTL16 cells, 24 hours) it was 9.22; in data set [3] (setting [8]) it was 8.40.
`Cn1cc(-c2cc(F)c3nnc(Sc4ccc5ncc(N)cc5c4)n3c2)cn1` [Example 55, 6-(8-Fluoro-6-(1-methyl-1H-pyrazol-4-yl)-[1,2,4]triazolo[4,3-a]pyridin-3-ylthio)quinolin-3-amine hydrochloride]: the pIC50 at human platelet PDE3 was < 4.52; in the data set with GTL16 cells, 9.00; in [3], […].
For `Cn1cc(-c2ccc3nnc(Sc4ccc5ncc(N)cc5c4)n3c2)cn1` [Example 56, 6-(6-(1-Methyl-1H-pyrazol-4-yl)-[1,2,4]triazolo[4,3-a]pyridin-3-ylthio)quinolin-3-amine hydrochloride], the figures for the pIC50 (against human platelet PDE3; in the data set on GTL16 cells; in data set [3]) were 4.77, 7.48 and 7.89, respectively.
With `c1cc2ncc(N3CCOCC3)cc2cc1Sc1nnc2ccc(-c3cn[nH]c3)cn12` [Example 57, 4-(6-(6-(1H-pyrazol-4-yl)-[1,2,4]triazolo[4,3-a]pyridin-3-ylthio)quinolin-3-yl)morpholine], the pIC50 on human platelet PDE3 was 5.00; in the data set on GTL16 cells (GTL16 cells, 24 hours), 8.00; in [3] it was […].
As to `Fc1cc(-c2cn[nH]c2)cn2c(Sc3ccc4ncc(N5CCOCC5)cc4c3)nnc12` [Example 58, 4-(6-(8-Fluoro-6-(1H-pyrazol-4-yl)-[1,2,4]triazolo[4,3-a]pyridin-3-ylthio)quinolin-3-yl)morpholine], the pIC50 on human platelet PDE3 was 4.89; in the data set on GTL16 cells (GTL16 cells, 24 hours), 8.10; in data set [3] (setting [8]) it was […].
`C/C(=N\O)c1ccc2nnc(Sc3ccc4ncc(CN5CCOCC5)cc4c3)n2c1` [Example 79, (E)-1-(3-(3-(Morpholin-4-yl-methyl)quinolin-6-ylthio)-[1,2,4]triazolo[4,3-a]pyridin-6-yl)ethanone oxime]: the pIC50 against human platelet PDE3 is < 4.52; with GTL16 cells (GTL16 cells, 24 hours), 5.94; in data set [3] (setting [8]), 7.08.
The compound `Cn1cc(-c2ccc3nnc(Sc4ccc5ncccc5c4)n3c2)cn1` [Reference Example No. 63, 6-(6-(1-methyl-1H-pyrazol-4-yl)-[1,2,4]triazolo[4,3-a]pyridin-3-ylthio)quinoline] returned an IC50 in [2] of 15 nM.
In the case of `Cn1cc(-c2cnc3ccc(Sc4nnc5ccc(-c6cnn(CCO)c6)cn45)cc3c2)cn1` [Reference Example No. 73, 2-(4-(3-(3-(1-methyl-1H-pyrazol-4-yl)quinolin-6-ylthio)-[1,2,4]triazolo[4,3-a]pyridin-6-yl)-1H-pyrazol-1-yl)ethanol, reference compound], in data set [2], 7 nM corresponded to half-maximal inhibition (IC50). Also, the pIC50 in data set [3] was 8.30.

By IC50 is commonly meant the concentration needed to halve the response being measured.
